Source: ChEMBL document CHEMBL3421577, “Discovery and biological evaluation of tetrahydrothieno[2,3-c]pyridine derivatives as selective metabotropic glutamate receptor 1 antagonists for the potential treatment of neuropathic pain” (Eur J Med Chem, 2015)

Tests used:
Rattus norvegicus [1] = experiment: Analgesic activity in rat spinal nerve ligation model of neuropathic pain assessed as recovery from cold allodynia at 100 mg/kg, po administered on day 14 post ligation surgery measured after 1 hr relative to control; format: functional
[2] = Plasma concentration in Sprague-Dawley rat at 10 mg/kg, po measured at 2 hrs by LC-MS/MS analysis; format: ADME, organism-based; set-up: dose 10 mg/kg, route oral
[3] = biological target: Cannabinoid receptor 1 (Homo sapiens) (UniProt P21554); experiment: Agonist activity at CB1 receptor (unknown origin) at 12.5 uM relative to control
[4] = biological target: Muscarinic acetylcholine receptor M5 (Homo sapiens) (UniProt P08912); experiment: Antagonist activity at M5 receptor (unknown origin) at 10 uM relative to control
[5] = Drug uptake in Sprague-Dawley rat brain at 10 mg/kg, iv measured at 2 hrs by LC-MS/MS analysis; format: ADME, organism-based; set-up: dose 10 mg/kg, route intravenous; settings: read-out: Drug uptake
CYP2C19 = CYP2C19 (Homo sapiens, UniProt P33261); experiment: Inhibition of recombinant human CYP2C19 assessed as remaining activity at 10 uM preincubated for 5 mins followed by substrate and NADP addition measured after 20 mins by fluorescence assay relative to control; format: ADME; settings: read-out: Activity
[6] = biological target: C-X-C chemokine receptor type 5 (Homo sapiens) (UniProt P32302); experiment: Agonist activity at CXCR5 (unknown origin) at 12.5 uM relative to control
[7] = biological target: Metabotropic glutamate receptor 2 (Homo sapiens) (UniProt Q14416); experiment: Agonist activity at mGlu2 receptor (unknown origin) at 12.5 uM relative to control
[8] = Drug excretion in Sprague-Dawley rat at 10 mg/kg, po by LC-MS/MS analysis; format: ADME, organism-based; set-up: dose 10 mg/kg, route oral; settings: in vivo, read-out: Drug excretion
[9] = Drug excretion in Sprague-Dawley rat at 10 mg/kg, iv by LC-MS/MS analysis; format: ADME, organism-based; set-up: dose 10 mg/kg, route intravenous; settings: in vivo, read-out: Drug excretion
Rattus norvegicus [10] = experiment: Analgesic activity in rat spinal nerve ligation model of neuropathic pain assessed as recovery from mechanical allodynia at 100 mg/kg, po administered on day 14 post ligation surgery measured after 3 hrs relative to control; format: functional
[11] = biological target: Alpha-1A adrenergic receptor (Homo sapiens) (UniProt P35348); experiment: Antagonist activity at ADRA1A (unknown origin) at 10 uM relative to control
CYP1A2 = biological target: T1, CYP1A2 (Homo sapiens, UniProt P05177); experiment: Inhibition of recombinant human CYP1A2 assessed as remaining activity at 10 uM preincubated for 5 mins followed by substrate and NADP addition measured after 20 mins by fluorescence assay relative to control; format: ADME; settings: read-out: Activity
T1 sequence (P05177 whole entry): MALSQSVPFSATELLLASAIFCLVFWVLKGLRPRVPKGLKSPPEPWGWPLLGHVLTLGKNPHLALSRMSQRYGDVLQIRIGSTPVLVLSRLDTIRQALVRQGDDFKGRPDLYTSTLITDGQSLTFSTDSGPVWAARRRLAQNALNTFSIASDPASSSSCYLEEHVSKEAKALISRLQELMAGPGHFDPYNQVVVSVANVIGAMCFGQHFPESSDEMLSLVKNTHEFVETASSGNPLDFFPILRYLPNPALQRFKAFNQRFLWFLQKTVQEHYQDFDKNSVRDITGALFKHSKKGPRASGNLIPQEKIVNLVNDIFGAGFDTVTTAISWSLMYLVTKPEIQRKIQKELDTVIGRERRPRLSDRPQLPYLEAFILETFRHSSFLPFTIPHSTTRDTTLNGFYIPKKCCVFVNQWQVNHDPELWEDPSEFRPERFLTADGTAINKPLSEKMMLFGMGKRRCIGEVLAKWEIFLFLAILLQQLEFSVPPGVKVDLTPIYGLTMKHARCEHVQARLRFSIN

[12] = biological target: C-C chemokine receptor type 4 (Homo sapiens) (UniProt P51679); experiment: Agonist activity at CCR4 (unknown origin) at 12.5 uM relative to control
[13] = biological target: B2 bradykinin receptor (Homo sapiens) (UniProt P30411); experiment: Agonist activity at BDKR2 (unknown origin) at 12.5 uM relative to control
[14] = biological target: 5-hydroxytryptamine receptor 2A (Homo sapiens) (UniProt P28223); experiment: Agonist activity at 5HT2A receptor (unknown origin) at 12.5 uM relative to control
[15] = biological target: C-X-C chemokine receptor type 2 (Homo sapiens) (UniProt P25025); experiment: Agonist activity at CXCR2 (unknown origin) at 12.5 uM relative to control
[16] = biological target: C-C chemokine receptor type 2 (Homo sapiens) (UniProt P41597); experiment: Agonist activity at CCR2B (unknown origin) at 12.5 uM relative to control
[17] = Mean residence time in Sprague-Dawley rat at 10 mg/kg, iv by LC-MS/MS analysis; format: ADME, organism-based; set-up: dose 10 mg/kg, route intravenous; settings: in vivo
[18] = Drug uptake in Sprague-Dawley rat brain at 10 mg/kg, po measured at 2 hrs by LC-MS/MS analysis; format: ADME, organism-based; set-up: dose 10 mg/kg, route oral; settings: read-out: Drug uptake
[19] = Tmax in Sprague-Dawley rat at 10 mg/kg, po by LC-MS/MS analysis; format: ADME, organism-based; set-up: dose 10 mg/kg, route oral; settings: in vivo
[20] = biological target: Substance-P receptor (Homo sapiens) (UniProt P25103); experiment: Agonist activity at NK1 receptor (unknown origin) at 12.5 uM relative to control
[21] = biological target: C-C chemokine receptor type 2 (Homo sapiens) (UniProt P41597); experiment: Antagonist activity at CCR2B (unknown origin) at 10 uM relative to control
[22] = biological target: Substance-P receptor (Homo sapiens) (UniProt P25103); experiment: Antagonist activity at NK1 receptor (unknown origin) at 10 uM relative to control
[23] = Cmax in Sprague-Dawley rat at 10 mg/kg, po by LC-MS/MS analysis; format: ADME, organism-based; set-up: dose 10 mg/kg, route oral; settings: in vivo
[24] = biological target: Metabotropic glutamate receptor 1 (Homo sapiens, UniProt Q13255); experiment: Antagonist activity at mGlu1 receptor (unknown origin) at 10 uM relative to control
[25] = biological target: C-X-C chemokine receptor type 4 (Homo sapiens) (UniProt P61073); experiment: Antagonist activity at CXCR4 (unknown origin) at 10 uM relative to control
[26] = AUC (0 to infinity) in Sprague-Dawley rat at 10 mg/kg, po by LC-MS/MS analysis; format: ADME, organism-based; set-up: time infinity, dose 10 mg/kg, route oral; settings: plasma
[27] = biological target: Metabotropic glutamate receptor 5 (Homo sapiens, UniProt P41594); experiment: Antagonist activity at human mGluR5 expressed in human embryonic kidney cells assessed as inhibition of L-glutamate-induced calcium release at 10 uM by calcium-5 reagent-based fluorescence assay relative to control; format: functional, cell-based
[28] = biological target: Muscarinic acetylcholine receptor M1 (Homo sapiens) (UniProt P11229); experiment: Antagonist activity at M1 receptor (unknown origin) at 10 uM relative to control
CYP2D6 = CYP2D6 (Homo sapiens, UniProt P10635); experiment: Inhibition of recombinant human CYP2D6 assessed as remaining activity at 10 uM preincubated for 5 mins followed by substrate and NADP addition measured after 20 mins by fluorescence assay relative to control; format: ADME; settings: read-out: Activity
[29] = AUClast in Sprague-Dawley rat at 10 mg/kg, iv by LC-MS/MS analysis; format: ADME, organism-based; set-up: time 0 - last, dose 10 mg/kg, route intravenous; settings: plasma
[30] = biological target: 5-hydroxytryptamine receptor 2C (Homo sapiens) (UniProt P28335); experiment: Agonist activity at 5HT2C receptor (unknown origin) at 12.5 uM relative to control
[31] = Total clearance in Sprague-Dawley rat at 10 mg/kg, iv by LC-MS/MS analysis; format: ADME, organism-based; set-up: dose 10 mg/kg, route intravenous; settings: in vivo

Sequence of Substance-P receptor (Homo sapiens) (P25103 whole entry): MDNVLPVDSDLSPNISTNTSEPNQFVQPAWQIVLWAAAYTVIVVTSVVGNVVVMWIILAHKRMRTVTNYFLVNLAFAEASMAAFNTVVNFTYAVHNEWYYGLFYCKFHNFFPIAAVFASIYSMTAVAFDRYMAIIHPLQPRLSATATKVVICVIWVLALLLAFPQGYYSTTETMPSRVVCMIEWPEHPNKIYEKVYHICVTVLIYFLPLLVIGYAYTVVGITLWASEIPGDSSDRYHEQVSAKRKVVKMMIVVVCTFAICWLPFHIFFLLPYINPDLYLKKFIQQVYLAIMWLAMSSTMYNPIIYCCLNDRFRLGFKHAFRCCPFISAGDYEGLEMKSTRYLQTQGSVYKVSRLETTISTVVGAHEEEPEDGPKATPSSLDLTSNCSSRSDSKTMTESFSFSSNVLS
Sequence of C-C chemokine receptor type 2 (Homo sapiens) (P41597 whole entry, looked up): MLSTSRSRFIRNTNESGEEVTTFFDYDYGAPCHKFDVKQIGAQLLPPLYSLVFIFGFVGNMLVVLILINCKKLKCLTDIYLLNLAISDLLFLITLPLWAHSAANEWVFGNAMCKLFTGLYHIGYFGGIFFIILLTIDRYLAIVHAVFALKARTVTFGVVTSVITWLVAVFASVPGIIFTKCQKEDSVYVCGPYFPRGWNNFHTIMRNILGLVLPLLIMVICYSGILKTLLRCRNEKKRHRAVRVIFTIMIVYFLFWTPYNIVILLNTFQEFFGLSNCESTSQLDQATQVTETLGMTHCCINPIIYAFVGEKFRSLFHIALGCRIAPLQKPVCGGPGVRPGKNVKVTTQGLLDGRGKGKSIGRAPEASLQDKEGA
Sequence of Metabotropic glutamate receptor 2 (Homo sapiens) (Q14416 19-872 limits assumed): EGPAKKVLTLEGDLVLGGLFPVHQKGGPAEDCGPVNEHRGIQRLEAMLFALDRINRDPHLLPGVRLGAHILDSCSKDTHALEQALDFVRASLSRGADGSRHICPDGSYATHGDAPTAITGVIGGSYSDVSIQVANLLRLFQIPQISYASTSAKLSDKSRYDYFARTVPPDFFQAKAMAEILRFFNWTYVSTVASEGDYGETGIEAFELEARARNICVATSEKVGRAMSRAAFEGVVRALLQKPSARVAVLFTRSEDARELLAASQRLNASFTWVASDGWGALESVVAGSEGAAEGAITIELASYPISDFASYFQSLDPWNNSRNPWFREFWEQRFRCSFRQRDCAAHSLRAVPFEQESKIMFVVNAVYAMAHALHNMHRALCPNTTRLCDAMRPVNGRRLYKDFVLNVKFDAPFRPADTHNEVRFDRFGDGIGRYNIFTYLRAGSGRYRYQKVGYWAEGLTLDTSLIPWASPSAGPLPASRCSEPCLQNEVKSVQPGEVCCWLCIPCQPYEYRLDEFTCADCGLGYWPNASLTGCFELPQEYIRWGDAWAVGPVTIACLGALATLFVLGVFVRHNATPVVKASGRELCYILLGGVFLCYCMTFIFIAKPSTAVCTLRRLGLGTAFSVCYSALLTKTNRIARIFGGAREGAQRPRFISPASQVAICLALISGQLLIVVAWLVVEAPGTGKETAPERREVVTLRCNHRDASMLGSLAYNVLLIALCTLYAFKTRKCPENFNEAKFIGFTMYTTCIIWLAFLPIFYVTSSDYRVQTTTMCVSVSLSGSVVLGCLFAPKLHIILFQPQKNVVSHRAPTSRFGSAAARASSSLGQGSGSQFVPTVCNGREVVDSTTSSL
Sequence of Cannabinoid receptor 1 (Homo sapiens) (P21554 whole entry): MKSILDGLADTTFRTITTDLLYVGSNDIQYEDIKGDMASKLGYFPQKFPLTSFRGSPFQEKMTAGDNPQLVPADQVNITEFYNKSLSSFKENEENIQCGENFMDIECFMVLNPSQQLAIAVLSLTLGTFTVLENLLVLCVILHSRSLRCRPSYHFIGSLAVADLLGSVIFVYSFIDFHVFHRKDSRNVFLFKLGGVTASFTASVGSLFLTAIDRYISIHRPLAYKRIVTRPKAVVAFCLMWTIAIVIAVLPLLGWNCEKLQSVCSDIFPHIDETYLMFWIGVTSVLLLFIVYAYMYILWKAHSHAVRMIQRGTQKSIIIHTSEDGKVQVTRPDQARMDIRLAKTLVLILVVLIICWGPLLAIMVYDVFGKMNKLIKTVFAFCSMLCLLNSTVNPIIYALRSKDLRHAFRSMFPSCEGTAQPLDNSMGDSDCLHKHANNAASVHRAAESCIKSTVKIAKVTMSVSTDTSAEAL
Sequence of CYP2C19 (P33261 whole entry): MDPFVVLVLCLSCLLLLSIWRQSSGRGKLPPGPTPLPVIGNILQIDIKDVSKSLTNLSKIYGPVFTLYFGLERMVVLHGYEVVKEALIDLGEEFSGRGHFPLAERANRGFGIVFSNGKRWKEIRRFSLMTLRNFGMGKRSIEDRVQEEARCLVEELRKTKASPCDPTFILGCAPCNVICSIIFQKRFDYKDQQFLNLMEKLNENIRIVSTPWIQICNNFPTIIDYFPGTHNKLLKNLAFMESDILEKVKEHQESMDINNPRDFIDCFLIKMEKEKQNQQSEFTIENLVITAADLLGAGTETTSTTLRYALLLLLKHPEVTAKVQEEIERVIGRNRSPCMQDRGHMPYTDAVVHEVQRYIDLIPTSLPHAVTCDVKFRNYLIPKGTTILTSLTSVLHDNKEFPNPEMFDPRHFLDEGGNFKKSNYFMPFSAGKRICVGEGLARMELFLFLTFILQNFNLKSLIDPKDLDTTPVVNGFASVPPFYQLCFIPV
Sequence of C-C chemokine receptor type 4 (Homo sapiens) (P51679 whole entry): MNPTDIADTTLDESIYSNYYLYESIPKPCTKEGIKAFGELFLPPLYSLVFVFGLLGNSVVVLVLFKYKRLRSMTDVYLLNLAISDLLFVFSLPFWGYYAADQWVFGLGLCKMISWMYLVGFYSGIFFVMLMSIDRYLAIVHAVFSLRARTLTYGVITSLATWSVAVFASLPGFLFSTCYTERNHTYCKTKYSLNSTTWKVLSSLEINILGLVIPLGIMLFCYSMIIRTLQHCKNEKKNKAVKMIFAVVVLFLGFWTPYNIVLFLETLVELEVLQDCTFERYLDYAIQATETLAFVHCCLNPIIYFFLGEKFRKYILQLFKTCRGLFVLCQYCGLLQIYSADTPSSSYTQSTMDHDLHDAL
Sequence of Metabotropic glutamate receptor 5 (P41594 21-1212 limits assumed): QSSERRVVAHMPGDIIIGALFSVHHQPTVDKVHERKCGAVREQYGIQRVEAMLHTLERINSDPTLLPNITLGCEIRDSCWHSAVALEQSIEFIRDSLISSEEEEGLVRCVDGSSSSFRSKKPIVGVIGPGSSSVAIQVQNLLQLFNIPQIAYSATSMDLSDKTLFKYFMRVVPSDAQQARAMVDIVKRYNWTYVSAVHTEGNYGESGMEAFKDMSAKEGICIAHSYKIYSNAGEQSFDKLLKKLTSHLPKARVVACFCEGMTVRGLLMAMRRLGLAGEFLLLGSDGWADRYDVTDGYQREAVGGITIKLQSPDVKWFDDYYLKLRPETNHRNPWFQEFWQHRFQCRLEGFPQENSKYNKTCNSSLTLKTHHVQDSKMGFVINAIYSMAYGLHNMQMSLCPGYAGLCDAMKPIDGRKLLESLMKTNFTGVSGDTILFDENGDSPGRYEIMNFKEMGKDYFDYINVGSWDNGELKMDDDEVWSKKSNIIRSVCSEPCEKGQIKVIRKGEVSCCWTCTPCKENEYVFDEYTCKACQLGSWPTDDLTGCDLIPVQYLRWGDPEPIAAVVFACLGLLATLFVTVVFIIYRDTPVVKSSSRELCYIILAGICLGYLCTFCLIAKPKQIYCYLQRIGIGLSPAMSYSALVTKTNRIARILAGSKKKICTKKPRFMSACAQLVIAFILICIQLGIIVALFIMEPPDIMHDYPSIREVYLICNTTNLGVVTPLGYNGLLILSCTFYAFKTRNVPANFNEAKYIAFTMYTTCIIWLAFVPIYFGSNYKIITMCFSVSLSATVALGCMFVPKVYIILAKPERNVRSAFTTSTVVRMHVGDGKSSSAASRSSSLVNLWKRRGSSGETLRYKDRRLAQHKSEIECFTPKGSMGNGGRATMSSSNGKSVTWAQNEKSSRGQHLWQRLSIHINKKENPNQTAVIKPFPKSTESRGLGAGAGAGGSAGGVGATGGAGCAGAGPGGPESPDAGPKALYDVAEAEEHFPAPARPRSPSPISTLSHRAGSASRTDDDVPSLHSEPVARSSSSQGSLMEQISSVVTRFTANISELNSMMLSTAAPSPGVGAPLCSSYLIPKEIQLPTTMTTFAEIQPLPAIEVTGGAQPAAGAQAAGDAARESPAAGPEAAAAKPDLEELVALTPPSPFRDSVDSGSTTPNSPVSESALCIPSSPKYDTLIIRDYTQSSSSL
Sequence of C-X-C chemokine receptor type 2 (Homo sapiens) (P25025 whole entry): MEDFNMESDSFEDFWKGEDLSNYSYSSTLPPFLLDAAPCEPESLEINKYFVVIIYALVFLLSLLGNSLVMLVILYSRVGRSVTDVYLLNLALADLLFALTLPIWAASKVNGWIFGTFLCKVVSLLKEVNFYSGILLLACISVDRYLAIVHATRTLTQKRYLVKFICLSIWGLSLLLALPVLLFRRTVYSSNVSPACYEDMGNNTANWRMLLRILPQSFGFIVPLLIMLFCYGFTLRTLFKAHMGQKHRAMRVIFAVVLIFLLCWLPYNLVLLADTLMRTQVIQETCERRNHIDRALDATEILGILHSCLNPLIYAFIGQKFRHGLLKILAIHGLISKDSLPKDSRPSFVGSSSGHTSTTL
Sequence of CYP2D6 (P10635 whole entry): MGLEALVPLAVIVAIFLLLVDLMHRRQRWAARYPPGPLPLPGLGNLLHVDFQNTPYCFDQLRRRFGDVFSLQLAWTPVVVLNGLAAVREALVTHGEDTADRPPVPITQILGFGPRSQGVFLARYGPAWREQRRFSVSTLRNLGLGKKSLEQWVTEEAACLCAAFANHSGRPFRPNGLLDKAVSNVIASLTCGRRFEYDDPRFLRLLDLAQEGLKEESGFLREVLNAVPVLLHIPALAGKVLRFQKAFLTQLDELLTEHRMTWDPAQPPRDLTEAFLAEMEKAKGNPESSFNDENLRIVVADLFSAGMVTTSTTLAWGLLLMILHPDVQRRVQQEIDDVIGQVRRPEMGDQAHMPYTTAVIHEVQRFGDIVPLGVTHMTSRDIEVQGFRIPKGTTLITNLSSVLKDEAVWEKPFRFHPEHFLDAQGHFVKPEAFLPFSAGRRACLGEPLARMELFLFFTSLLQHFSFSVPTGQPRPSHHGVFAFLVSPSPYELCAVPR

concentration at 2 h [2]: 1190 ng/mL
Activity [3]: 0.3%
inhibition [4]: 7.7%
concentration at 2 h [5]: 138 ng/mL
activity at 20 min, 10 µM (CYP2C19): 14.2%
Activity [6]: -2.9%
Activity [7]: -2.7%
dose excreted [8]: 0%
dose excreted [9]: 0%
inhibition [11]: 9.2%
activity at 20 min, 10 µM (CYP1A2): 72.7%
Activity [12]: -2.3%
Activity [13]: 0.7%
Activity [14]: -4%
Activity [15]: -0.9%
Activity [16]: -1.4%
MRT [17]: 1.31 h
concentration at 2 h [18]: 156 ng/mL
Tmax [19]: 1.2 h
Activity [20]: 0.8%
inhibition [21]: -0.1%
inhibition [22]: -2.1%
Cmax [23]: 1410 ng/mL
inhibition [24]: 104%
inhibition [25]: 3.9%
AUC(0-inf) [26]: 4250 ng·h/mL
inhibition [27]: 59.8%
inhibition [28]: -0.6%
activity at 20 min, 10 µM (CYP2D6): 33.7%
AUC(0-t) [29]: 9060 ng·h/mL
Activity [30]: -0.3%
clearance [31]: 20.1 mL/min/kg
SMILES: Cc1cc(C(=O)N2CCc3c(sc(NCc4ccccc4)c3C#N)C2)[nH]n1
Activity (Rattus norvegicus [1]): 90%
Activity (Rattus norvegicus [10]): 60%
